Legend:
[1] = Clinical trials of Compound 1: resistance and tolerability; type: in vivo, human
Source text: Compound 1, is also known as “sofosbuvir” or “SOF”.

[2] = healthy volunteers, cited from earlier work

| Structure (SMILES) | tolerability [1] | increases in Compound 1 exposure from co-administration ([2]; co-administration with GS-5885, GS-9669, and GS-5885+GS-9669) | exposure on concurrent administration of Compound 1 [2] |
| --- | --- | --- | --- |
| CC(C)OC(=O)[C@H](C)N[P@](=O)(OC[C@H]1O[C@@H](n2ccc(=O)[nH]c2=O)[C@](C)(F)[C@@H]1O)Oc1ccccc1 [Compound 1, (S)-isopropyl2-(((S)-(((2R,3R,4R,5R)-5-(2,4-dioxo-3,4-dihydrophyrimidin-1(2H)-yl)-4-fluoro-3-hydroxy-4-methyltetrahydrofuran-2-yl)methoxy)(phenoxy)phosphoryl)amino)propanoate] | well-tolerated | not clinically significant |  |
| COC[C@H]1C[C@@H](c2ncc(-c3ccc4c(c3)COc3cc5c(ccc6nc([C@@H]7CC[C@H](C)N7C(=O)[C@@H](NC(=O)OC)C(C)C)[nH]c65)cc3-4)[nH]2)N(C(=O)[C@H](NC(=O)OC)c2ccccc2)C1 [GS-9669] |  |  | unaffected |
| COC(=O)N[C@H](C(=O)N1CC2(CC2)C[C@H]1c1ncc(-c2ccc3c(c2)C(F)(F)c2cc(-c4ccc5nc([C@@H]6[C@H]7CC[C@H](C7)N6C(=O)[C@@H](NC(=O)OC)C(C)C)[nH]c5c4)ccc2-3)[nH]1)C(C)C [GS-5885] |  |  | unaffected |

From patent publication US20150150897A1, “METHODS OF TREATING HEPATITIS C VIRUS INFECTION IN SUBJECTS WITH CIRRHOSIS” (priority 2013, published 2015)
